Data from patent US11858945B2, “Alkyne-containing antiviral agents” (Enanta Pharmaceuticals, Inc., priority 2021, dated 2024).

The compounds below were run against SARS-CoV-2 3CL-protease (Severe acute respiratory syndrome coronavirus 2 (2019-nCoV) (SARS-CoV-2), UniProt P0DTD1) (assay: SARS-CoV-2 3C-like (3CL) protease fluorescence assay (FRET)). Conditions: recombinant SARS-CoV-2 3CL-protease 10 nM, 30 min preincubation at RT, peptide substrate, run in duplicate; IC50 ranges.
Format: biochemical
`C#C[C@@H]1C[C@@]2(CN1C(=O)[C@H](CC(C)(C)F)NC(=O)c1cc3cccc(C(F)(F)F)c3[nH]1)C(=O)Nc1ccccc12` [Compound 13, N—((S)-1-((3R,5′S)-5′-ethynyl-2-oxospiro[indoline-3,3′-pyrrolidin]-1′-yl)-4-fluoro-4-methyl-1-oxopentan-2-yl)-7-(trifluoromethyl)-1H-indole-2-carboxamide] showed an IC50 of less than 100 nM.
`C#C[C@@H]1C[C@@]2(CN1C(=O)[C@H](CC(C)(C)F)NC(=O)c1c(Cl)cccc1Cl)C(=O)Nc1ccccc12` [Compound 21, 2,6-dichloro-N—((S)-1-((3R,5′S)-5′-ethynyl-2-oxospiro[indoline-3,3′-pyrrolidin]-1′-yl)-4-fluoro-4-methyl-1-oxopentan-2-yl)benzamide] gave an IC50 greater than 1000 nM.
`C#C[C@@H]1C[C@@]2(CN1C(=O)[C@H](CC(C)(C)F)NC(=O)c1cc3cccc(F)c3[nH]1)C(=O)Nc1ccccc12` [Compound 8, N—((S)-1-((3R,5′S)-5′-ethynyl-2-oxospiro[indoline-3,3′-pyrrolidin]-1′-yl)-4-fluoro-4-methyl-1-oxopentan-2-yl)-7-fluoro-1H-indole-2-carboxamide] was tested, and the IC50 was less than 100 nM.
Work on `C#C[C@@H]1C[C@@]2(CN1C(=O)[C@H](CC(C)(C)F)NC(=O)c1cc3ccc(F)cc3[nH]1)C(=O)Nc1ccccc12` [Compound 9, N—((S)-1-((3R,5′S)-5′-ethynyl-2-oxospiro[indoline-3,3′-pyrrolidin]-1′-yl)-4-fluoro-4-methyl-1-oxopentan-2-yl)-6-fluoro-1H-indole-2-carboxamide] yielded an IC50 of less than 100 nM.
`C#C[C@@H]1C[C@@]2(CN1C(=O)[C@H](CC(C)(C)F)NC(=O)c1cc3cc(C(F)(F)F)ccc3[nH]1)C(=O)Nc1ccccc12` [Compound 14, N—((S)-1-((3R,5′S)-5′-ethynyl-2-oxospiro[indoline-3,3′-pyrrolidin]-1′-yl)-4-fluoro-4-methyl-1-oxopentan-2-yl)-5-(trifluoromethyl)-1H-indole-2-carboxamide] gave an IC50 of 100 to 1000 nM.
For `C#C[C@@H]1C[C@@]2(CN1C(=O)[C@H](CC(C)(C)F)NC(=O)c1cc3cc(S(C)(=O)=O)ccc3[nH]1)C(=O)Nc1ccccc12` [Compound 1, N—((S)-1-((3R,5′S)-5′-ethynyl-2-oxospiro[indoline-3,3′-pyrrolidin]-1′-yl)-4-fluoro-4-methyl-1-oxopentan-2-yl)-5-(methylsulfonyl)-1H-indole-2-carboxamide], the IC50 was 100 to 1000 nM.
In the case of `C#C[C@@H]1C[C@@]2(CN1C(=O)[C@H](CC(C)(C)F)NC(=O)c1cc3cccc(Cl)c3[nH]1)C(=O)Nc1ccccc12` [Compound 5, 7-chloro-N—((S)-1-((3R,5′S)-5′-ethynyl-2-oxospiro[indoline-3,3′-pyrrolidin]-1′-yl)-4-fluoro-4-methyl-1-oxopentan-2-yl)-1H-indole-2-carboxamide], the IC50 is reported as less than 100 nM.
`C#C[C@@H]1C[C@@]2(CN1C(=O)[C@H](CC(C)(C)F)NC(=O)c1cc3c(Cl)cccc3[nH]1)C(=O)Nc1ccccc12` [Compound 2, 4-chloro-N—((S)-1-((3R,5′S)-5′-ethynyl-2-oxospiro[indoline-3,3′-pyrrolidin]-1′-yl)-4-fluoro-4-methyl-1-oxopentan-2-yl)-1H-indole-2-carboxamide] gave an IC50 of 100 to 1000 nM.
`C#C[C@@H]1C[C@@]2(CN1C(=O)[C@H](CC(C)(C)F)NC(=O)c1cc3cc(Cl)ccc3[nH]1)C(=O)Nc1ccccc12` [Compound 3, 5-chloro-N—((S)-1-((3R,5′S)-5′-ethynyl-2-oxospiro[indoline-3,3′-pyrrolidin]-1′-yl)-4-fluoro-4-methyl-1-oxopentan-2-yl)-1H-indole-2-carboxamide] gave an IC50 of 100 to 1000 nM.
For `C#C[C@@H]1C[C@@]2(CN1C(=O)[C@H](CC(C)(C)F)NC(=O)c1cc3cc(F)ccc3o1)C(=O)Nc1ccccc12` [Compound 18, N—((S)-1-((3R,5′S)-5′-ethynyl-2-oxospiro[indoline-3,3′-pyrrolidin]-1′-yl)-4-fluoro-4-methyl-1-oxopentan-2-yl)-5-fluorobenzofuran-2-carboxamide], the IC50 was greater than 1000 nM.
Work on `C#C[C@@H]1C[C@@]2(CN1C(=O)[C@H](CC(C)(C)F)NC(=O)c1cccc(OC(F)(F)F)c1)C(=O)Nc1ccccc12` [Compound 20, N—((S)-1-((3R,5′S)-5′-ethynyl-2-oxospiro[indoline-3,3′-pyrrolidin]-1′-yl)-4-fluoro-4-methyl-1-oxopentan-2-yl)-3-(trifluoromethoxy)benzamide] yielded an IC50 of 100 to 1000 nM.
With `C#C[C@@H]1C[C@@]2(CN1C(=O)[C@H](CC(C)(C)F)NC(=O)c1cc3cccc(C#N)c3[nH]1)C(=O)Nc1ccccc12` [Compound 15, 7-cyano-N—((S)-1-((3R,5′S)-5′-ethynyl-2-oxospiro[indoline-3,3′-pyrrolidin]-1′-yl)-4-fluoro-4-methyl-1-oxopentan-2-yl)-1H-indole-2-carboxamide] the IC50 was less than 100 nM.
`C#C[C@@H]1C[C@@]2(CN1C(=O)[C@H](CC(C)(C)F)NC(=O)c1cc3cccnc3[nH]1)C(=O)Nc1ccccc12` [Compound 16, N—((S)-1-((3R,5′S)-5′-ethynyl-2-oxospiro[indoline-3,3′-pyrrolidin]-1′-yl)-4-fluoro-4-methyl-1-oxopentan-2-yl)-1H-pyrrolo[2,3-b]pyridine-2-carboxamide] showed an IC50 of 100 to 1000 nM.
`C#C[C@@H]1C[C@@]2(CN1C(=O)[C@H](CC(C)(C)F)NC(=O)c1cc3ccc(Cl)c(Cl)c3[nH]1)C(=O)Nc1ccccc12` [Compound 7, 6,7-dichloro-N—((S)-1-((3R,5′S)-5′-ethynyl-2-oxospiro[indoline-3,3′-pyrrolidin]-1′-yl)-4-fluoro-4-methyl-1-oxopentan-2-yl)-1H-indole-2-carboxamide] showed an IC50 of less than 100 nM.
`C#C[C@@H]1C[C@@]2(CN1C(=O)[C@H](CC(C)(C)F)NC(=O)c1cc3cccc(F)c3o1)C(=O)Nc1ccccc12` [Compound 17, N—((S)-1-((3R,5′S)-5′-ethynyl-2-oxospiro[indoline-3,3′-pyrrolidin]-1′-yl)-4-fluoro-4-methyl-1-oxopentan-2-yl)-7-fluorobenzofuran-2-carboxamide] gave an IC50 greater than 1000 nM.
`C#C[C@@H]1C[C@@]2(CN1C(=O)[C@H](CC(C)(C)F)NC(=O)c1cc3c(F)cc(F)cc3[nH]1)C(=O)Nc1ccccc12` [Compound 10, N—((S)-1-((3R,5′S)-5′-ethynyl-2-oxospiro[indoline-3,3′-pyrrolidin]-1′-yl)-4-fluoro-4-methyl-1-oxopentan-2-yl)-4,6-difluoro-1H-indole-2-carboxamide] showed an IC50 of 100 to 1000 nM.
In the case of `C#C[C@@H]1C[C@@]2(CN1C(=O)[C@H](CC(C)(C)F)NC(=O)c1cc3ccc(Cl)cc3[nH]1)C(=O)Nc1ccccc12` [Compound 4, 6-chloro-N—((S)-1-((3R,5′S)-5′-ethynyl-2-oxospiro[indoline-3,3′-pyrrolidin]-1′-yl)-4-fluoro-4-methyl-1-oxopentan-2-yl)-1H-indole-2-carboxamide], the IC50 is reported as less than 100 nM.
In the case of `C#C[C@@H]1C[C@@]2(CN1C(=O)[C@H](CC(C)(C)F)NC(=O)c1cc3c(Cl)cc(Cl)cc3[nH]1)C(=O)Nc1ccccc12` [Compound 6, 4,6-dichloro-N—((S)-1-((3R,5′S)-5′-ethynyl-2-oxospiro[indoline-3,3′-pyrrolidin]-1′-yl)-4-fluoro-4-methyl-1-oxopentan-2-yl)-1H-indole-2-carboxamide], the IC50 is reported as 100 to 1000 nM.
For `C#C[C@@H]1C[C@@]2(CN1C(=O)[C@H](CC(C)(C)F)NC(=O)c1cc(F)c3ncccc3c1)C(=O)Nc1ccccc12` [Compound 19, N—((S)-1-((3R,5′S)-5′-ethynyl-2-oxospiro[indoline-3,3′-pyrrolidin]-1′-yl)-4-fluoro-4-methyl-1-oxopentan-2-yl)-8-fluoroquinoline-6-carboxamide], the IC50 was greater than 1000 nM.
With `C#C[C@@H]1C[C@@]2(CN1C(=O)[C@H](CC(C)(C)F)NC(=O)c1cc3c(F)ccc(F)c3[nH]1)C(=O)Nc1ccccc12` [Compound 11, N—((S)-1-((3R,5′S)-5′-ethynyl-2-oxospiro[indoline-3,3′-pyrrolidin]-1′-yl)-4-fluoro-4-methyl-1-oxopentan-2-yl)-4,7-difluoro-1H-indole-2-carboxamide] the IC50 was less than 100 nM.
For `C#C[C@@H]1C[C@@]2(CN1C(=O)[C@H](CC(C)(C)F)NC(=O)c1cc3cc(F)c(F)c(F)c3[nH]1)C(=O)Nc1ccccc12` [Compound 12, N—((S)-1-((3R,5′S)-5′-ethynyl-2-oxospiro[indoline-3,3′-pyrrolidin]-1′-yl)-4-fluoro-4-methyl-1-oxopentan-2-yl)-5,6,7-trifluoro-1H-indole-2-carboxamide], the IC50 was less than 100 nM.
